# Source: patent US20110105408A1, “THERAPEUTIC PEPTIDES” (INTER-K PTY LIMITED, priority 2008, published 2011)
# “Also recorded” adds a separate entry of the source.
# What was measured:
# HT29 colon cancer cells = test: Cell proliferation (MTT) assay, HT29 cells; type: cell-based, human
# Protocol: Single cell suspensions of viable trypsinised cells were seeded into 96-well tissue culture plates at a density of 2×10^3 cells per well in a volume of 100 μl of a suitable culture media with foetal calf serum (FCS) (e.g., Dulbecco's Modified Eagles Medium (DMEM), with 10% v/v FCS, glutamine, Hepes, and antibiotics). A set of triplicate wells was prepared for each concentration of the peptide dendrimer being tested. Additional sample wells containing untreated cells or media alone were set up in each treatment plate and processed in parallel as reference controls. A zero-time plate of untreated cells and media-alone wells was simultaneously prepared and an MTT assay carried out on this plate at the time of test peptide dendrimer addition to treatment plates. All plates were cultured for 24 hours before addition of the test dendrimer. To prepare the MTT solution 100 mg of MTT (3-(4,5-dimethylthiazolyl-2)-2,5-diphenyltetrazolium bromide) (Cat #. M-128, Sigma, St Louis Mo.), is mixed with 20 ml of PBS at pH 7.4. The resulting solution is filter sterilized (0.2 μM syringe filter) and stored at 4° C. protected from light until use. MTT substrate is cleaved in growing cells to yield a water insoluble salt. After solubilisation of the salt crystals, a coloured product is produced the measurement of which allows quantitation of the proliferative activity of the cultured cells.
# Appropriate concentrations of the test dendrimer were prepared by dilution of freshly prepared sterile 1 mM stock solutions into cell culture media to give a final well volume of 200 μl containing 10% v/v FCS. The zero-plate was processed by addition of MTT at this time. Cell culture was continued for a further 24 or 48 hours before addition of 20 μl of MTT in PBS (5 mg/ml, 0.2 um filter sterilised). The MTT cell proliferation assay measures cell proliferation rate and, in instances where cell viability is compromised, the assay indicates a comparative reduction in cell viability. After a 3 hour incubation in the presence of MTT (5% CO2 in air at 37° C.), plates were centifuged at 450 g for 5 minutes, supernatant removed by gentle suction and precipitated tetrazolium salt resuspended into 150 μl DMSO:glycine (0.1 M glycine, 0.1 M NaCl pH 10.5) (6:1 v/v) solution. Plates were gently vortexed to complete solubilisation of crystalline material and absorbance was read at 540-550 nm using a microplate reader. Sample data were processed to determine the comparative growth of treated samples relative to untreated controls.
# HT29 cells were cultured for 48 hours in the presence of selected dendrimers and proliferation of the cells was assessed by MTT assay essentially as described in Example 1.2. The results were calculated as percentage proliferation of control cells (not treated with dendrimer).
# [1] = test system: HT29 human colorectal adenocarcinoma tumour; test: Inhibition of HT29 tumour growth in a mouse model, intra-tumoural injection; type: in vivo, Mouse (Mus musculus) BALB/c nu/nu; conditions: for Tumour volume, Delta avg: change in volume from day 0
# Protocol: HT29 human colorectal adenocarcinoma cells were cultured in RPMI 1640 cell culture medium supplemented with 10% v/v FCS and 50 IU/mL penicillin-streptomycin. The cells were harvested by trypsinisation, washed twice in HBSS and counted. The cells were then resuspended in HBSS to a final concentration of 2×10^7 cells/mL.
# • Species: Mouse (Mus musculus) • Strain: BALB/c nu/nu • Source: University of Adelaide (Waite Campus, Urrbrae, SA, Australia) • Total number of animals in study: 20 females • Number of study groups: 2 (1 test, 1 control) • Number of mice per group: 10 • Body weight range: 20.61-25.27 g at onset of treatment (mean 22.27 g) • Age range: 10-12 weeks at onset of treatment.
# Prior to inoculation the skin on the injection site (dorsal right flank) was swabbed with alcohol. The needle was introduced through the skin into the subcutaneous space just below the animal's right shoulder, and 100 μL of cells (2×10^6 cells) were discharged. The treatment of mice began nine days after HT29 cell inoculation, the average tumour volume was 68 mm^3 (average variability of 6.1%).
# Body weight and tumour dimensions (length and diameter) were measured for all animals on the first day of treatment (day 0) and then three times per week, including the termination day of the study (Day 24).
# Mice were randomized, based on body weight, into two groups of ten mice on Day 0 of the study. The peptide dendrimer IK248B presenting 10 monomer units of the peptide RSKAKNPLYR (SEQ ID No. 6) (see Example 8) was used in this study. The vehicle control (phosphate buffered saline (PBS)) and IK248B dendrimer (20 mg/kg) were each administered by intra-tumoural injection once daily for five consecutive days, beginning on Day 0.
# The vehicle control and IK248B dendrimer were administered at a dosing volume of 4.762 mL/kg (100 μL) based on a 21 g mouse. Each animal's body weight was measured immediately prior to dosing. The volume of dosing solution administered to each mouse was calculated and adjusted based on individual body weight.
# Tumours were excised from all mice post mortem and weighed. Tumour volume was calculated using the equation:
# V(mm^3)=length×diameter^2×p/6
# ΔT/ΔC(%) was calculated using the following equation:
# ΔT/ΔC(%)=(ΔvolumeTreatment/ΔVolumeControl)×100
# where Δ=change in volume from day 0 to the final measurement day or nominated day of interest.
# All statistical calculations were performed using SigmaStat 3.0 (SPSS Australasia, North Sydney, NSW, Australia). A two-sample t-test was used to determine the significance in body weight change within a treatment group between day 0 and day 4, and between day 0 and the termination day of the study. A One-Way Analysis of Variance (ANOVA) was performed on tumour volumes measured in all mice at the end of the study. Where significant differences were found in the data, the All Pairwise Multiple Comparison Procedures (Holm-Sidak Method) were performed. A two-sample t-test was used to show a significant difference between the tumour weight data for the vehicle control and Dend 10 10(4) treatment groups. A p value of less than 0.05 was considered significant.
smiles,measurement,setting,value
CC(C)C[C@H](NC(=O)[C@@H]1CCCN1C(=O)[C@H](CC(N)=O)NC(=O)[C@H](CCCCN)NC(=O)[C@H](C)NC(=O)[C@H](CCCCN)NC(=O)[C@H](CO)NC(=O)[C@@H](N)CCCNC(=N)N)C(=O)N[C@@H](Cc1ccc(O)cc1)C(=O)N[C@@H](CCCNC(=N)N)C(=O)NCCCC[C@H](NC(=O)[C@H](CCCCNC(=O)[C@H](CCCCNC(=O)[C@H](CCCNC(=N)N)NC(=O)[C@H](Cc1ccc(O)cc1)NC(=O)[C@H](CC(C)C)NC(=O)[C@@H]1CCCN1C(=O)[C@H](CC(N)=O)NC(=O)[C@H](CCCCN)NC(=O)[C@H](C)NC(=O)[C@H](CCCCN)NC(=O)[C@H](CO)NC(=O)[C@@H](N)CCCNC(=N)N)NC(=O)[C@H](CCCNC(=N)N)NC(=O)[C@H](Cc1ccc(O)cc1)NC(=O)[C@H](CC(C)C)NC(=O)[C@@H]1CCCN1C(=O)[C@H](CC(N)=O)NC(=O)[C@H](CCCCN)NC(=O)[C@H](C)NC(=O)[C@H](CCCCN)NC(=O)[C@H](CO)NC(=O)[C@@H](N)CCCNC(=N)N)NC(=O)[C@H](CCCCNC(=O)[C@H](CCCNC(=N)N)NC(=O)[C@H](Cc1ccc(O)cc1)NC(=O)[C@H](CC(C)C)NC(=O)[C@@H]1CCCN1C(=O)[C@H](CC(N)=O)NC(=O)[C@H](CCCCN)NC(=O)[C@H](C)NC(=O)[C@H](CCCCN)NC(=O)[C@H](CO)NC(=O)[C@@H](N)CCCNC(=N)N)NC(=O)[C@H](CCCNC(=N)N)NC(=O)[C@H](Cc1ccc(O)cc1)NC(=O)[C@H](CC(C)C)NC(=O)[C@@H]1CCCN1C(=O)[C@H](CC(N)=O)NC(=O)[C@H](CCCCN)NC(=O)[C@H](C)NC(=O)[C@H](CCCCN)NC(=O)[C@H](CO)NC(=O)[C@@H](N)CCCNC(=N)N)C(=O)NCCCC[C@H](NC(=O)[C@H](CCCCNC(=O)[C@H](CCCNC(=N)N)NC(=O)[C@H](Cc1ccc(O)cc1)NC(=O)[C@H](CC(C)C)NC(=O)[C@@H]1CCCN1C(=O)[C@H](CC(N)=O)NC(=O)[C@H](CCCCN)NC(=O)[C@H](C)NC(=O)[C@H](CCCCN)NC(=O)[C@H](CO)NC(=O)[C@@H](N)CCCNC(=N)N)NC(=O)[C@H](CCCCNC(=O)[C@H](CCCCNC(=O)[C@H](CCCNC(=N)N)NC(=O)[C@H](Cc1ccc(O)cc1)NC(=O)[C@H](CC(C)C)NC(=O)[C@@H]1CCCN1C(=O)[C@H](CC(N)=O)NC(=O)[C@H](CCCCN)NC(=O)[C@H](C)NC(=O)[C@H](CCCCN)NC(=O)[C@H](CO)NC(=O)[C@@H](N)CCCNC(=N)N)NC(=O)[C@H](CCCNC(=N)N)NC(=O)[C@H](Cc1ccc(O)cc1)NC(=O)[C@H](CC(C)C)NC(=O)[C@@H]1CCCN1C(=O)[C@H](CC(N)=O)NC(=O)[C@H](CCCCN)NC(=O)[C@H](C)NC(=O)[C@H](CCCCN)NC(=O)[C@H](CO)NC(=O)[C@@H](N)CCCNC(=N)N)NC(=O)[C@H](CCCCNC(=O)[C@H](CCCNC(=N)N)NC(=O)[C@H](Cc1ccc(O)cc1)NC(=O)[C@H](CC(C)C)NC(=O)[C@@H]1CCCN1C(=O)[C@H](CC(N)=O)NC(=O)[C@H](CCCCN)NC(=O)[C@H](C)NC(=O)[C@H](CCCCN)NC(=O)[C@H](CO)NC(=O)[C@@H](N)CCCNC(=N)N)NC(=O)[C@H](CCCNC(=N)N)NC(=O)[C@H](Cc1ccc(O)cc1)NC(=O)[C@H](CC(C)C)NC(=O)[C@@H]1CCCN1C(=O)[C@H](CC(N)=O)NC(=O)[C@H](CCCCN)NC(=O)[C@H](C)NC(=O)[C@H](CCCCN)NC(=O)[C@H](CO)NC(=O)[C@@H](N)CCCNC(=N)N)C(=O)NCCC(N)=O [IK248B],inhibition of proliferation of HT29 cells (MTT),HT29 colon cancer cells; 48 hours culture with dendrimer,proliferation of the cells was inhibited; also recorded: more effective than dendrimer IK248
same,dendrimer concentration required for total kill,"HT29 colon cancer cells; HT29 cells, 48 hours, MTT",10 µM
same,tumour growth compared to vehicle only control,[1]; 20 mg/kg intra-tumoural once daily for five days,markedly inhibited
same,average tumour weight at the end of the study,"[1]; 20 mg/kg intra-tumoural once daily for five days, Day 24, control 0.962 g",0.437 g
same,dT/dC [%],[1]; Day 0,100.0%
same,"Tumour volume, Delta avg",[1]; Day 0,0.0 mm^3
same,"Tumour volume, Average",[1]; Day 0 post-initial treatment,68.0 mm^3
same,dT/dC [%],[1]; Day 2,134.3%
same,"Tumour volume, Delta avg",[1]; Day 2,68.6 mm^3
same,"Tumour volume, Average",[1]; Day 2 post-initial treatment,136.6 mm^3
same,dT/dC [%],[1]; Day 4,102.0%
same,"Tumour volume, Delta avg",[1]; Day 4,144.0 mm^3
same,"Tumour volume, Average",[1]; Day 4 post-initial treatment,211.9 mm^3
same,dT/dC [%],[1]; Day 7,68.1%
same,"Tumour volume, Delta avg",[1]; Day 7,180.6 mm^3
same,"Tumour volume, Average",[1]; Day 7 post-initial treatment,248.6 mm^3
same,dT/dC [%],[1]; Day 11,58.0%
same,"Tumour volume, Delta avg",[1]; Day 11,232.9 mm^3
same,"Tumour volume, Average",[1]; Day 11 post-initial treatment,300.9 mm^3
same,dT/dC [%],[1]; Day 14,44.6%
same,"Tumour volume, Delta avg",[1]; Day 14,255.9 mm^3
same,"Tumour volume, Average",[1]; Day 14 post-initial treatment,323.9 mm^3
same,dT/dC [%],[1]; Day 16,45.2%
same,"Tumour volume, Delta avg",[1]; Day 16,323.1 mm^3
same,"Tumour volume, Average",[1]; Day 16 post-initial treatment,391.0 mm^3
same,dT/dC [%],[1]; Day 18,47.1%
same,"Tumour volume, Delta avg",[1]; Day 18,408.9 mm^3
same,"Tumour volume, Average",[1]; Day 18 post-initial treatment,476.9 mm^3
same,dT/dC [%],[1]; Day 21,55.7%
same,"Tumour volume, Delta avg",[1]; Day 21,598.7 mm^3
same,"Tumour volume, Average",[1]; Day 21 post-initial treatment,601.5 mm^3
same,dT/dC [%],[1]; Day 24,54.5%
same,"Tumour volume, Delta avg",[1]; Day 24,710.4 mm^3
same,"Tumour volume, Average",[1]; Day 24 post-initial treatment,702.1 mm^3
